In US20110117189A1, “OPHTHALMIC COMPOSITIONS FOR TREATING PATHOLOGIES OF THE POSTERIOR SEGMENT OF THE EYE” (S.I.F.I. Societa' Industria Farmaceutica Italiana S.P.A., priority 2008, published 2011):

Assay: In-vivo pharmacokinetic test: ocular distribution of dexamethasone after single administration to the conjunctival sac (LC/MS/MS)
Design: species or system pigmented rabbits
Settings: treated and non-treated eyes
Procedure: Dexamethasone concentration in ocular tissues was determined by a LC/MS/MS method.
Two experiments were carried out on male pigmented rabbits weighing 1.8-2.2 kg divided into 2 treatment groups, of which only one eye was treated with: 50 μl of the composition containing dexamethasone sodium phosphate in 1% xanthan base (Group I) or 50 μl of dexamethasone sodium phosphate in solution (Group II). In the first experiment the animals were then killed at the following times: 30, 60, 90, 120, 180 and 240 minutes after treatment (n=6 animals for each time point). In the second experiment the animals were killed at these times: 15, 30 and 60 minutes after treatment (n=4 animals for each time point). The active principle was determined in the aqueous humour, vitreous, retina-choroid and plasma after suitable extraction from the biological tissue, by a LC/MS/MS method.

Concentrations of dexamethasone in the vitreous: less than 10 ng/ml
SMILES: C[C@@H]1C[C@H]2[C@@H]3CCC4=CC(=O)C=C[C@]4(C)[C@@]3(F)[C@@H](O)C[C@]2(C)[C@@]1(O)C(=O)CO [dexamethasone]
